{"source": "ChEMBL document CHEMBL5696442", "about": "“Discovery of type II inhibitors of TGFβ-activated kinase 1 (TAK1) and mitogen-activated protein kinase kinase kinase kinase 2 (MAP4K2)” (J Med Chem, 2015)", "key": {"[1]": {"target": "Cyclin-dependent kinase 17 (Homo sapiens) (UniProt Q00537)", "sequence (Q00537 whole entry, looked up)": "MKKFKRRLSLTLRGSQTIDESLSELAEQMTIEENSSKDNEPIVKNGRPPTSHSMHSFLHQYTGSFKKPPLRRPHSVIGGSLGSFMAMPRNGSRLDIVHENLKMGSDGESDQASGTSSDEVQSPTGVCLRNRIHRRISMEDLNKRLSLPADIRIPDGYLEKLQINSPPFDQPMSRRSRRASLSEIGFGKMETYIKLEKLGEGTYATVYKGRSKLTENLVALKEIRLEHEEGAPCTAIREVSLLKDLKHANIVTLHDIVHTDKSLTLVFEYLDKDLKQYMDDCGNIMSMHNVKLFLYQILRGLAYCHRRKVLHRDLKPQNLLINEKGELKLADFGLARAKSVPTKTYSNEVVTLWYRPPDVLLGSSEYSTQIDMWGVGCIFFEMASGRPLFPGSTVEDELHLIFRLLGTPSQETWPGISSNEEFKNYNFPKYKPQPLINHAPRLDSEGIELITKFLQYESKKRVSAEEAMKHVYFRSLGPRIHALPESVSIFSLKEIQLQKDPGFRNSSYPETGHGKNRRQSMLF", "experiment": "Inhibition of PCTAIRE2 Lys2 labeling site harbouring DLKPQNLLINEKGELKLADFGLAR in human Huh-7 cells at 1 uM by KiNativ Profiling analysis relative to control", "type": "cell-based"}, "[2]": {"target": "Misshapen-like kinase 1 (Homo sapiens) (UniProt Q8N4C8)", "experiment": "Inhibition of ZC3/MINK Lys2 labeling site in human Huh-7 cells at 1 uM by KiNativ Profiling analysis relative to control", "type": "cell-based"}, "[3]": {"target": "Serine/threonine-protein kinase 4 (Homo sapiens) (UniProt Q13043)", "sequence (Q13043 whole entry, looked up)": "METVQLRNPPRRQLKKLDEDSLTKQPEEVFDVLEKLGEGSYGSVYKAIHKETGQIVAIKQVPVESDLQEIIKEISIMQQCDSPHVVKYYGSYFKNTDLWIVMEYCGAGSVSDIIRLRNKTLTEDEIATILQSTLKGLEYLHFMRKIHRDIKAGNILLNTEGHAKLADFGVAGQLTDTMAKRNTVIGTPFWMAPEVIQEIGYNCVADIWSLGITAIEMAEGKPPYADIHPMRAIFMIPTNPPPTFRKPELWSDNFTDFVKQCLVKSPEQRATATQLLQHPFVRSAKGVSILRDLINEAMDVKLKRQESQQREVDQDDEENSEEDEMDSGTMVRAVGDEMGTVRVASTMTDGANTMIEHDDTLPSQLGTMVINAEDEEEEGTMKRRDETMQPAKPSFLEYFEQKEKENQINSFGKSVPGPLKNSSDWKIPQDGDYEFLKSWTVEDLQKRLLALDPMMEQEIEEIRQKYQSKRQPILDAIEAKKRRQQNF", "experiment": "Inhibition of MST1 Lys2 labeling site harbouring DIKAGNILLNTEGHAK in human Huh-7 cell lysate at 1 uM by KiNativ Profiling analysis relative to control"}, "[4]": {"target": "Serine/threonine-protein kinase 38-like (Homo sapiens) (UniProt Q9Y2H1)", "experiment": "Inhibition of NDR2 Lys1 labeling site in human Huh-7 cell lysate at 1 uM by KiNativ Profiling analysis relative to control", "type": "subcellular"}, "[5]": {"target": "Putative phosphatidylinositol 4-kinase alpha-like protein P2 (Homo sapiens) (UniProt A4QPH2)", "sequence (A4QPH2 whole entry)": "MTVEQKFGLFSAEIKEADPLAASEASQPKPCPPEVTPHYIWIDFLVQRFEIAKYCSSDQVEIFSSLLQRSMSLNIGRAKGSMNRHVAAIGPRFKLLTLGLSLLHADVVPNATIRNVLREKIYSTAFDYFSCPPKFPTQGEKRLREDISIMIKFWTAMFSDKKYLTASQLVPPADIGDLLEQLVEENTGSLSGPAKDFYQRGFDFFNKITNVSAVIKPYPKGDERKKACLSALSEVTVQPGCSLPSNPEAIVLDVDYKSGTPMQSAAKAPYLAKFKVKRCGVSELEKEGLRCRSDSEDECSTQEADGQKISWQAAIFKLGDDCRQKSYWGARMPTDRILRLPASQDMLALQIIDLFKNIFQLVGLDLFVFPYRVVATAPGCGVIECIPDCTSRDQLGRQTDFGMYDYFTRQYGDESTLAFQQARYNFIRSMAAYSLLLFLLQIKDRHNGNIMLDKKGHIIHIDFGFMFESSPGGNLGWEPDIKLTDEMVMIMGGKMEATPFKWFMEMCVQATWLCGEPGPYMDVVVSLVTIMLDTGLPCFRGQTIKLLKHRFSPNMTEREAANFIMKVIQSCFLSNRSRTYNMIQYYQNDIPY", "experiment": "Inhibition of PI4KAP2 ATP labeling site in human Huh-7 cells at 1 uM by KiNativ Profiling analysis relative to control", "type": "cell-based"}, "[6]": {"target": "Calcium/calmodulin-dependent protein kinase type II subunit delta (Homo sapiens) (UniProt Q13557)", "sequence (Q13557 whole entry)": "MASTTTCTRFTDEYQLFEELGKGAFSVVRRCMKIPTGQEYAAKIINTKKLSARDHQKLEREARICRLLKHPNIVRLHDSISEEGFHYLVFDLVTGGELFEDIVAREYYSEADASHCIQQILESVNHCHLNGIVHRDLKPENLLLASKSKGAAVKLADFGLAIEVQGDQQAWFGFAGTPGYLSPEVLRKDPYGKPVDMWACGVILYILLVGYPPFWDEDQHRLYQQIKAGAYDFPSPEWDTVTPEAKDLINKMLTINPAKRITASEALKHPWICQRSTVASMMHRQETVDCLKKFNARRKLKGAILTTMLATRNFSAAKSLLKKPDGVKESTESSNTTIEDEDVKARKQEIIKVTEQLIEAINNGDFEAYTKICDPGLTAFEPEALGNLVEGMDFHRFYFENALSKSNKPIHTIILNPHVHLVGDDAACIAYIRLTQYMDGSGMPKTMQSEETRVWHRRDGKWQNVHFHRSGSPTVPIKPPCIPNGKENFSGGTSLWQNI", "experiment": "Inhibition of CaMK2d Lys1 labeling site harbouring IPTGQEYAAKIINTKK in human Huh-7 cells at 1 uM by KiNativ Profiling analysis relative to control", "type": "cell-based"}, "[7]": {"target": "Peripheral plasma membrane protein CASK (Homo sapiens) (UniProt O14936)", "sequence (O14936 whole entry, looked up)": "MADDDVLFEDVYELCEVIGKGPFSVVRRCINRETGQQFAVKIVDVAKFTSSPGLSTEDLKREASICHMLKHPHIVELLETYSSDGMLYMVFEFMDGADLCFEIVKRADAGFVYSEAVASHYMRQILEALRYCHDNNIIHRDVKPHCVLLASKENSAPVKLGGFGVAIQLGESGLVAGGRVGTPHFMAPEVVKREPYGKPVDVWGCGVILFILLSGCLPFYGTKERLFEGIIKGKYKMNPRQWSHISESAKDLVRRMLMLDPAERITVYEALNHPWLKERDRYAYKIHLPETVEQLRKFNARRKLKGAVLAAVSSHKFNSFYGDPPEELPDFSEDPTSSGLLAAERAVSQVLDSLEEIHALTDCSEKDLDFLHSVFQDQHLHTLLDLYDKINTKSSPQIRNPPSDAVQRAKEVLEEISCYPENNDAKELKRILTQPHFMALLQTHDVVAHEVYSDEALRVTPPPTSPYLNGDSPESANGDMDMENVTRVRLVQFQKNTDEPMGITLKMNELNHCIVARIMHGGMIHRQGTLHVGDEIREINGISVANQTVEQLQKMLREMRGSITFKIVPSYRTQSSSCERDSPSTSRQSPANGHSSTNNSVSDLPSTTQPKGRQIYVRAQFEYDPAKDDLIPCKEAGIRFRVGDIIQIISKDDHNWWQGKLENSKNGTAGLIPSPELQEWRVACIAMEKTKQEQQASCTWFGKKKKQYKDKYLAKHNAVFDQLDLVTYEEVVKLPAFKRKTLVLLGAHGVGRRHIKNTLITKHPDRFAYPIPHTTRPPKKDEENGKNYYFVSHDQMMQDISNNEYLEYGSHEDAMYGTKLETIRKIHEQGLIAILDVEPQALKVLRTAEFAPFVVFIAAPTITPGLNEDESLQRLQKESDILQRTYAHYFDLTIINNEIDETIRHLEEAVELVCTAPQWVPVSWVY", "experiment": "Inhibition of CASK K1 labeling site in human Huh-7 cells at 1 uM by KiNativ Profiling analysis relative to control"}, "[8]": {"target": "T1, Aurora kinase A (Homo sapiens) (UniProt O14965)", "T1 sequence (whole entry)": "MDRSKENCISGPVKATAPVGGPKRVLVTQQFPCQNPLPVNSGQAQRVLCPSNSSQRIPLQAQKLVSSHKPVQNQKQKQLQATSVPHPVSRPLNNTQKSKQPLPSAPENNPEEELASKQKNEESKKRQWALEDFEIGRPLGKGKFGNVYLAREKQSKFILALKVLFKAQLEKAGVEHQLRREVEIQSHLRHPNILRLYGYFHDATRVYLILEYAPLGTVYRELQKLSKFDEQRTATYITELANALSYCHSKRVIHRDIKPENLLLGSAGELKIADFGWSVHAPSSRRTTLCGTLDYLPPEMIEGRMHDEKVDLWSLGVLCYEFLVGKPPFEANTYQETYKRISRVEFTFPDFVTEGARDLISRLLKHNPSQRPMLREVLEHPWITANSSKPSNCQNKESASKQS", "experiment": "Inhibition of AurA K2 labeling site harbouring DIKPENLLLGSAGELK in human Huh-7 cells at 1 uM by KiNativ Profiling analysis relative to control", "type": "cell-based"}, "[9]": {"target": "T2, Serine/threonine-protein kinase greatwall (Homo sapiens) (UniProt Q96GX5)", "T2 sequence (whole entry)": "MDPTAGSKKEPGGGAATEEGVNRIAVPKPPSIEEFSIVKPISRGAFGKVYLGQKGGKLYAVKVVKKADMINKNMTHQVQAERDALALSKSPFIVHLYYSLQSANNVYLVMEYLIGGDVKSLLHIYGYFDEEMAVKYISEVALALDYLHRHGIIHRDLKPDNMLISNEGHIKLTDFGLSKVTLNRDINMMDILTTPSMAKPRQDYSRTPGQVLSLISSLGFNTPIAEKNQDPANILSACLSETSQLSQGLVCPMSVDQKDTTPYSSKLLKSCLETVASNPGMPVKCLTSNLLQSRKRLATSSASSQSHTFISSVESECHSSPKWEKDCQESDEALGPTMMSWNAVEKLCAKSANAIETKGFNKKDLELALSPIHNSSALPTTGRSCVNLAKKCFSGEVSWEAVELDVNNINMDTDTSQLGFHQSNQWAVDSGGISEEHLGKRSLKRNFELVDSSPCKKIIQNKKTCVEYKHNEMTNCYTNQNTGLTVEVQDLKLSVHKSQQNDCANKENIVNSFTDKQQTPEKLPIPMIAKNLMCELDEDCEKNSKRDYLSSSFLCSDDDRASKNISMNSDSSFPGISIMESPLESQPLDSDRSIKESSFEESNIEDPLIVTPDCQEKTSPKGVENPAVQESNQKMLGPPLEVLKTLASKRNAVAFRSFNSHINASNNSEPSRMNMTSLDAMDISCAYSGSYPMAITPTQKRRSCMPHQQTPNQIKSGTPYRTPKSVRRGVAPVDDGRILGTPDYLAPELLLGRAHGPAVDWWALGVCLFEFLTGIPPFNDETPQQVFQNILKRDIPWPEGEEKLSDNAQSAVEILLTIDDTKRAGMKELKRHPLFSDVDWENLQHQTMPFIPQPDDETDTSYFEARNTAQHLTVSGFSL", "experiment": "Inhibition of MASTL ATP labeling site in human Huh-7 cells at 10 uM by KiNativ Profiling analysis relative to control", "type": "cell-based"}, "[10]": {"target": "Serine/threonine-protein kinase Nek4 (Homo sapiens) (UniProt P51957)", "experiment": "Inhibition of NEK4 Lys2 labeling site in human A-375 cells at 0.05 uM by KiNativ Profiling analysis relative to control", "type": "cell-based"}, "[11]": {"target": "Calcium/calmodulin-dependent protein kinase kinase 2 (Homo sapiens) (UniProt Q96RR4)", "experiment": "Inhibition of CaMKK2 Lys1 labeling site in human A-375 cells at 0.05 uM by KiNativ Profiling analysis relative to control", "type": "cell-based"}, "[12]": {"target": "Serine/threonine-protein kinase 16 (Homo sapiens) (UniProt O75716)", "sequence (O75716 whole entry)": "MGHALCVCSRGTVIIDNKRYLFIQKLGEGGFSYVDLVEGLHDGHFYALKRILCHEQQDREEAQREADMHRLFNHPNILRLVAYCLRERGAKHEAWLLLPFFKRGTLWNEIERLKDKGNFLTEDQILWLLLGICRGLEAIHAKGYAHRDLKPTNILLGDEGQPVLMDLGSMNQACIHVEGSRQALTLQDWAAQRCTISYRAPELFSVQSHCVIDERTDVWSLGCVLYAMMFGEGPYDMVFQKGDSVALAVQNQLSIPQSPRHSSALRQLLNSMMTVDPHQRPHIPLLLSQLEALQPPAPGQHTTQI", "experiment": "Inhibition of STK16 (unknown origin) at 1 uM by Ambit Kinomescan binding assay relative to control"}, "[13]": {"target": "Receptor tyrosine-protein kinase erbB-3 (Homo sapiens) (UniProt P21860)", "sequence (P21860 whole entry)": "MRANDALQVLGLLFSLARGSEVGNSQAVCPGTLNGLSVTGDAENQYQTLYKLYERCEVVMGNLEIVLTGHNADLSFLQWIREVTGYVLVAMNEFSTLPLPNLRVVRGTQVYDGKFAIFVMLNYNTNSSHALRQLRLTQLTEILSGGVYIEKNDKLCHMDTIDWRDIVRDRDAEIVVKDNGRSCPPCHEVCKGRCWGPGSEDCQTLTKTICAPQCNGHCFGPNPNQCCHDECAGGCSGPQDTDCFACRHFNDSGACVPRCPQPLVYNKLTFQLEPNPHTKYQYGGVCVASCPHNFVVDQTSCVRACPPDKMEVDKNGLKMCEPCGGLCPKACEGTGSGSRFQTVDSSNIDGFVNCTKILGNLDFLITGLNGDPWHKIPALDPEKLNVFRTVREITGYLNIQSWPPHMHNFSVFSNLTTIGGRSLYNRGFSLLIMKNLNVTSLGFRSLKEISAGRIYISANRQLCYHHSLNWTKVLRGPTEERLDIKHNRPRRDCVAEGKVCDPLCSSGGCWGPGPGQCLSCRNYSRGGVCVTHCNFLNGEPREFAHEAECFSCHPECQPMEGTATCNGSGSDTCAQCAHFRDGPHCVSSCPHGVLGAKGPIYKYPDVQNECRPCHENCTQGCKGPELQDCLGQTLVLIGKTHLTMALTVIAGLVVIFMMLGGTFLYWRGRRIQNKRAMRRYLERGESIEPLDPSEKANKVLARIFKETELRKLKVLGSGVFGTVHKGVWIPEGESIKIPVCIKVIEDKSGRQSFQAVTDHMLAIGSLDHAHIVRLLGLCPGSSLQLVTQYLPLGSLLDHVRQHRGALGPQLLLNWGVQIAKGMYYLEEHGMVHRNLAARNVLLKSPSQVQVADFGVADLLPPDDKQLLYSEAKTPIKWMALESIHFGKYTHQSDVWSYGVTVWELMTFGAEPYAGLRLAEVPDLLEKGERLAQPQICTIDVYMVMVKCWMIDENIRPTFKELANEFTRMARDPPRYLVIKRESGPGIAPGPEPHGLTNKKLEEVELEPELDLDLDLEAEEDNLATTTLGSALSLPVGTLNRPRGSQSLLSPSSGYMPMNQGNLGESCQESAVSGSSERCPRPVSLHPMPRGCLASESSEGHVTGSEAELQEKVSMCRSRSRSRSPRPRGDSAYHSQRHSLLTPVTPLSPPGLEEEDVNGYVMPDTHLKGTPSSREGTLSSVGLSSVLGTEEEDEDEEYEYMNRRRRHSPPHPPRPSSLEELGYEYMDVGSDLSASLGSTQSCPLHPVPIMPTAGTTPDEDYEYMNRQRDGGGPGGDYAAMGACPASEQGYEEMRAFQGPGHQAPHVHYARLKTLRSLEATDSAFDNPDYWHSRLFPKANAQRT", "experiment": "Inhibition of HER3/ErbB3 ACT labeling site in human A-375 cells at 5 uM by KiNativ Profiling analysis relative to control", "type": "cell-based"}}}
{"smiles": "CNc1cc(Oc2cc(C(=O)Nc3cc(N4CCN(C)CC4)cc(C(F)(F)F)c3)ccc2C)ncn1", "values": [{"measurement": "inhibition", "setting": "[1]", "value": -9.1, "unit": "%"}, {"measurement": "inhibition", "setting": "[2]", "value": 9.7, "unit": "%"}, {"measurement": "inhibition", "setting": "[3]", "value": 8.2, "unit": "%"}, {"measurement": "inhibition", "setting": "[4]", "value": -6.7, "unit": "%"}, {"measurement": "inhibition", "setting": "[5]", "value": 29.8, "unit": "%"}, {"measurement": "inhibition", "setting": "[6]", "value": 11.6, "unit": "%"}]}
{"smiles": "CCN1CCN(Cc2ccc(NC(=O)c3ccc(C)c(Oc4ccnc5[nH]ccc45)c3)cc2C(F)(F)F)CC1", "values": [{"measurement": "inhibition", "setting": "[7]", "value": 3.8, "unit": "%"}, {"measurement": "inhibition", "setting": "[8]", "value": 0.9, "unit": "%"}, {"measurement": "inhibition", "setting": "[9]", "value": 3.9, "unit": "%"}, {"measurement": "inhibition", "setting": "[10]", "value": 15.2, "unit": "%"}]}
{"smiles": "CCN1CCN(Cc2ccc(NC(=O)c3ccc(C)c(/C=C/c4cnc5[nH]ccc5c4OC)c3)cc2C(F)(F)F)CC1", "values": [{"measurement": "inhibition", "setting": "[11]", "value": 3.5, "unit": "%"}, {"measurement": "inhibition", "setting": "[12]", "value": 100, "unit": "%"}, {"measurement": "inhibition", "setting": "[13]", "value": -3.7, "unit": "%"}]}
